Experimental data from ChEMBL document CHEMBL2073987, “The sulphonylurea glibenclamide inhibits multidrug resistance protein (MRP1) activity in human lung cancer cells” (Br J Pharmacol, 2001).

Key:
[1] = target: Multidrug resistance-associated protein 1 (Homo sapiens, UniProt P33527); experiment: TP_TRANSPORTER: inhibition of Calcein efflux (Calcein: 0.5 micro;M, Glibenclamide: 50-100 uM, increase intercellular calcein level by ca 4 fold ) in GLC4/Sb30 cells; format: functional, cell-based
[2] = target: ATP-binding cassette sub-family C member 2 (Rattus norvegicus, UniProt Q63120); experiment: TP_TRANSPORTER: inhibition of Carboxy-2',7'-dichlorofluorescein efflux (Calcein: 0.5 micro;M, Glibenclamide, 50-100 uM, increase intercellular CF level by ~2 fold) in isolated rat hepatocytes; format: functional, cell-based, Hepatocyte
ATP-binding cassette sub-family C member 2, sequence (Q63120 whole entry): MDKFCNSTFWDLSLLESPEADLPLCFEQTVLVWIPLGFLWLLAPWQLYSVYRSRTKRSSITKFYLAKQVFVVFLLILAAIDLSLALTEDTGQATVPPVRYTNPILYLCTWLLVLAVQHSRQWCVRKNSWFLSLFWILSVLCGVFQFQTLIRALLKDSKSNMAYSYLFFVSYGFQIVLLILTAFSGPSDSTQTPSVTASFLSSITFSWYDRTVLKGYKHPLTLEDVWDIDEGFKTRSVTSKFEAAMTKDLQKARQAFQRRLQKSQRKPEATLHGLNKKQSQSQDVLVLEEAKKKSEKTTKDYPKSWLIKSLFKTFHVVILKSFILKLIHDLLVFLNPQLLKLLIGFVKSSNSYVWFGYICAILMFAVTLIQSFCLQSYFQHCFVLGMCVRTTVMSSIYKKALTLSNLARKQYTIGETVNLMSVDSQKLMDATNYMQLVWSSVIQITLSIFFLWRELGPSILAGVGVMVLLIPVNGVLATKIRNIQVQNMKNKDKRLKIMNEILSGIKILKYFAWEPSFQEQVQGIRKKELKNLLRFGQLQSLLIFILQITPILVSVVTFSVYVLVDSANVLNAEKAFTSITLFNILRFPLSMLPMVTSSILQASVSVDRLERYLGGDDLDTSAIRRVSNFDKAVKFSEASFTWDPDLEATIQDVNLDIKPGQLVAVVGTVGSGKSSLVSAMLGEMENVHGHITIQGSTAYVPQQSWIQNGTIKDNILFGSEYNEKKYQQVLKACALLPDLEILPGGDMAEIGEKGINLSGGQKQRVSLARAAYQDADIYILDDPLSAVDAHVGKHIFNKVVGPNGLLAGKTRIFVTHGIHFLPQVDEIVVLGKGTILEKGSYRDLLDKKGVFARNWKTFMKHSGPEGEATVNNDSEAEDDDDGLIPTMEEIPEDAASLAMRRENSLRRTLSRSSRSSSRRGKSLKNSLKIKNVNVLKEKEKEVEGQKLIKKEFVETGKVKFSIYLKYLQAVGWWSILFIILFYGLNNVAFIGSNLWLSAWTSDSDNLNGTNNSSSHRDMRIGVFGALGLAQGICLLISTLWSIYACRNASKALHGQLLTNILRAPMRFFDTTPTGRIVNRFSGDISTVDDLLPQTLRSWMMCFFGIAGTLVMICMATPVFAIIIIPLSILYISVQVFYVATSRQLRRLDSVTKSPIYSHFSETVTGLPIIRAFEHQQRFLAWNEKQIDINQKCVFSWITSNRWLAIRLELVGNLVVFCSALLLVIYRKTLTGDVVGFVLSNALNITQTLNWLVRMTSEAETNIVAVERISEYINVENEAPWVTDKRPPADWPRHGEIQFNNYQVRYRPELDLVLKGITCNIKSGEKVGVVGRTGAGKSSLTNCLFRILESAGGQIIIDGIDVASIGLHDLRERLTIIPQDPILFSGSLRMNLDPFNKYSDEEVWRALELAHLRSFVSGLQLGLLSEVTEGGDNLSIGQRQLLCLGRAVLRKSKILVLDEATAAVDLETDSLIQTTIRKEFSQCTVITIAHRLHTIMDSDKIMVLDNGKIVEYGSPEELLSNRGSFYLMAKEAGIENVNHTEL

Multidrug resistance-associated protein 1, sequence (P33527 whole entry): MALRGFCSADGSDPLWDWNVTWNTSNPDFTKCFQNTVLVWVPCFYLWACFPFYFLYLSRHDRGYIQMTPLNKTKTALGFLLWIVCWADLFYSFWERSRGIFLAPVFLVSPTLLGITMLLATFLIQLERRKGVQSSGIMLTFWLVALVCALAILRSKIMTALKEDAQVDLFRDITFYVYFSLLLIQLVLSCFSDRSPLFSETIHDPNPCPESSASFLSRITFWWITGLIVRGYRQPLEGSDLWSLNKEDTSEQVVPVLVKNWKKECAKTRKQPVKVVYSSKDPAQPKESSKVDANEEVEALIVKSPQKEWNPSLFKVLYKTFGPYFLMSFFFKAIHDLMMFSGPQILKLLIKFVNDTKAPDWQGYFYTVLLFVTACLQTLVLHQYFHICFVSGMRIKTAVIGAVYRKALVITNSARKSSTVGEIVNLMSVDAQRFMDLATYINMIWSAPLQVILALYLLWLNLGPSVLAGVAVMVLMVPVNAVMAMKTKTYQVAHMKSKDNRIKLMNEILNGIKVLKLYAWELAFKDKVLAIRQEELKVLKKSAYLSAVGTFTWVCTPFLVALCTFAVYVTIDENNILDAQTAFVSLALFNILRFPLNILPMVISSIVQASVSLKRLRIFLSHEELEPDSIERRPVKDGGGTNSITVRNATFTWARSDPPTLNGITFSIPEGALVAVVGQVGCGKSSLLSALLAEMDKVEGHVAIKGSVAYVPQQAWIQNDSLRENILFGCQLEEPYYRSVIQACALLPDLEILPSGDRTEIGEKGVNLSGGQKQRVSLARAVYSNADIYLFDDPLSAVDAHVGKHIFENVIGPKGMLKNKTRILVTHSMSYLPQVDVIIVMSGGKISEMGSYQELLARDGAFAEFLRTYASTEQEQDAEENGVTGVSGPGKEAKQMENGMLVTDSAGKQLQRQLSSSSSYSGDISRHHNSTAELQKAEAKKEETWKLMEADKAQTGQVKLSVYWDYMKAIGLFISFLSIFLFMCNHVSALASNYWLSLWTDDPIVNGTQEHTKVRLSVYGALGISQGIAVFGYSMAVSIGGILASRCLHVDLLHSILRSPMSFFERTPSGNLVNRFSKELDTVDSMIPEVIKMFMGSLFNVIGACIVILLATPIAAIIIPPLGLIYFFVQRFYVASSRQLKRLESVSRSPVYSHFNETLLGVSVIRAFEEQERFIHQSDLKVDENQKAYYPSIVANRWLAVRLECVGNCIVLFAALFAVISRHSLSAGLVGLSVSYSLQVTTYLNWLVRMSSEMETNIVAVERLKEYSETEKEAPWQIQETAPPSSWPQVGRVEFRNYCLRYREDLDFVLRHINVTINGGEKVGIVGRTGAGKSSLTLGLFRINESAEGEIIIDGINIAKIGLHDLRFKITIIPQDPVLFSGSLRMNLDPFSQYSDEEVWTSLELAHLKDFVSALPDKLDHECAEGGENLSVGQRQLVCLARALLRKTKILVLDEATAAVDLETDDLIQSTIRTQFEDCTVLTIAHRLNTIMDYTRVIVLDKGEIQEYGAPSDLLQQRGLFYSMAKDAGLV

## COc1ccc(Cl)cc1C(=O)NCCc1ccc(S(=O)(=O)NC(=O)NC2CCCCC2)cc1 [GLYBURIDE]
[1]
  Activity: inhibitor [+]
[2]
  Activity: inhibitor [+]
